Experimental data as given in patent US6083920A, “Compositions for modulating intracellular inositol trisphosphate concentration” (priority 1996, dated 2000).
Entries after “also recorded” stand apart in the source; their conditions may differ.

Tests used:
hippocampal neurons = test: Histological analysis of brain 7 days after ICV infusion (cresyl violet); format: in vivo, male F344 rats; details: for HISTOLOGICAL CHANGES: rat
Method: Before administering various compounds, the animals were anesthetized with sodium pentobarbital (50 mg/kg, i.p.) and positioned in a sterotaxic instrument. A 26 gauge cannula was inserted into the cerebral ventricle at the following co-ordinates: 1.0 mm posterior to bregma, 1.5 mm lateral to the midline, and 4.0 mm below the dorsal surface of the neocortex. Cannulas were capped and fixed in place with dental cement. One week after cannulation, 10 μl of each of the treatment drugs was infused, ICV (i.e. into the ventricals of the brain), via a micropump at a rate of 10 μl/min. For this procedure, the animals were lightly restrained and unanesthetized. Following administration of the compound, the infusion cannula remained in position for one minute, after which the permanent in situ cannula was capped.
Seven days after the compounds were administered, animals were sacrificed by transcardial perfusion with neutralized, buffered 10% formalin-saline. Their brains were removed, post-fixed overnight in 10% formalin-saline, and sectioned along the coronal plane (into 50 μm thick sections) on a freezing microtome. The sections were stained with cresyl violet to determine the extent of cellular destruction. […]
Given that high concentrations of metabotropic receptors are located in the hippocampus, and that the hippocampus is particularly vulnerable to the effects of a variety of insults including ischemia and hypoxia, this region was examined for evidence of neuronal degeneration due to glutamate excitotoxicity.

cultured neurons = test: Lysosphingolipid content of cultured neurons by NBDZF fluorescence tagging; format: cell-based, chick; details: for lysosphingolipid content, 0 hours of incubation / lysosphingolipid content, 0.5 hours of incubation / lysosphingolipid content, 1.0 hours of incubation / lysosphingolipid content, 2.0 hours of incubation / lysosphingolipid content, 3.0 hours of incubation: Intact neurons, 10 μmolar exposure; for content of sphingosine in the neurons following exposure: exposure to 50 μM lysosphingolipid, 1 hour
From the text: Agonist-binding to metabotropic receptors influences the levels of lysosphingolipid in neuronal membranes. However, there is no convenient methodology available for the measurement of lysosphingolipid content in cultured neurons. As a result, a sensitive method of fluorometric tracing has been devised and is described herein. The measurement of lysosphingolipid content in cultured neurons is based on the stable fluorescence-tagging procedure using 4-fluoro, 7-nitrobenzofuran (NBDZF) described by Nozowa et al J. Neurochem. 59:607-609, 1992). The procedure was applied to: resting neurons; neurons exposed to 100 μM metabotropic receptor agonist for 1 hour; resting neurons exogenously enriched in lysosphingolipids; and neurons exogenously enriched in lysosphingolipids and exposed to metabotropic receptor agonist for 1 hour. The neurons were scraped in batches of 107 (1 Petri dish, approximately 8 cm in diameter, is equivalent to 2 mg membrane protein) and subjected to anaylsis.
Total lipids were removed from the neuron samples by repeated extraction with chloroforn:methanol (2:1, vol:vol). The lysosphingolipids were separated from total neuronal lipid in 90±5% recovery yield (n=10) by the stepped chromatographic procedure of Van Veldhoven et al. (Anal. Biochem. 183:177-189, 1989). The recovered lysosphingolipids were stably tagged with NBDZF by the rapid procedure of Nozowa et al. (supra). The fluorescence tagged neuronal lysosphingolipids were separated in parallel with reference standards NBDZF-Sph, NBDZF-Psy, and NBDZF-Lsm on high performance silica gel thin layer chromatography plates with acetonitrile:H2 O (10:0.5, vol:vol). The highly fluorescent, well separated bands were scraped from the plate. The fluorescence tagged lysosphingolipids are eluted from the scraped silica gel with methanol:1 N HCl (1:0.02, vol:vol). The fluorescence tagged lysosphingolipid eluates were quantitated against reference standards by fluorescence measurement in a Perkin-Elmer LS-5 Fluorescence Spectrometer.
Sphingolipid content of neurons exposed to sphingosine, lysocerebroside, and lysosphingomyelin was examined as follows. A Petri dish containing approximately 107 neurons was incubated with 5 μCi [^3 H]myo-Ins in 3 ml DMEM overnight to prelabel the phosphoinositide InsP3 may contain. The neurons were washed with PBS and 3 ml of PBS containing 4.5 g/l glucose was added. Preparations of sphingosine, lysocerebroside, lysosphingomyelin (Sigma Chemical Co., St. Louis, Mo.) and combinations of each were prepared as the hydrochloride salt dissolved in PBS. The lysosphingolipids were added to the Petri dishes to produce a concentration ranging from 0-150 μM. […] Trypsinization removes non-specifically bound lysosphingolipids that may adhere to extracellular plasma membrane protein domain s. Non-specific adherence between cationic micelles of lysosphingolipids and the neuronal glycocatyx avoided by performing the experiments with lysosphingolipid concentrations below the critical micelle concentration. Neurons were analyzed for lysosphingolipid content as described above.

astrocytes = details: cited from earlier work

SMILES	HISTOLOGICAL CHANGES (hippocampal neurons; Quisqualate 100 nmoles ICV)	HISTOLOGICAL CHANGES (hippocampal neurons; Quisqualate 150 nmoles ICV)	HISTOLOGICAL CHANGES (hippocampal neurons; Quisqualate 225 nmoles ICV, seven days after application)	HISTOLOGICAL CHANGES (hippocampal neurons; Quisqualate 225 nmoles ICV, seven days after application, listed as quisqualate)	HISTOLOGICAL CHANGES (hippocampal neurons; Quisqualate 250 nmoles ICV, seven days after application, listed as quisqualate)	HISTOLOGICAL CHANGES (hippocampal neurons; Quisqualate 500 μmoles ICV)	lysosphingolipid content, 0 hours of incubation (cultured neurons)	lysosphingolipid content, 0.5 hours of incubation (cultured neurons)	lysosphingolipid content, 1.0 hours of incubation (cultured neurons)	lysosphingolipid content, 2.0 hours of incubation (cultured neurons)	lysosphingolipid content, 3.0 hours of incubation (cultured neurons)	content of sphingosine in the neurons following exposure (cultured neurons) [pmoles/mg protein]	neuronal loss (CA1 pyramidal neurons, hippocampus) caused by quisqualate (hippocampal neurons; pretreatment with psychosine 125 nmoles, quisqualate 225 nmoles ICV, 7 days)	InsP3 production in astrocytes (astrocytes)
N[C@@H](Cn1oc(=O)[nH]c1=O)C(=O)O [Quisqualate, quisqualate]	none observed	none observed	loss of CA1	severe loss of neurons in the hippocampus; also recorded: considerable loss of CA1 pyramidal neurons in the hippocampus	severe loss of neurons in the hippocampus	loss of neurons								
CCCCCCCCCCCCC/C=C/[C@@H](O)[C@@H](N)CO[C@@H]1O[C@H](CO)[C@H](O)[C@H](O)[C@H]1O [psychosine, lysocerebroside]							25 ± 5 pmoles lysosphingolipid/mg pla	35 ± 15 pmoles lysosphingolipid/mg pla	45 ± 10 pmoles lysosphingolipid/mg pla	80 ± 5 pmoles lysosphingolipid/mg pla	80 ± 5 pmoles lysosphingolipid/mg pla	220±45	prevents the neuronal loss caused by quisqualate	inhibited
CCCCCCCCCCCCC/C=C/[C@@H](O)[C@@H](N)CO [sphingosine]							85 ± 15 pmoles lysosphingolipid/mg pla	85 ± 20 pmoles lysosphingolipid/mg pla	110 ± 15 pmoles lysosphingolipid/mg pla	105 ± 5 pmoles lysosphingolipid/mg pla	115 ± 15 pmoles lysosphingolipid/mg pla	430±70		enhanced
